# Earlier results, collected in patent publication US6426338B1, “Therapy for constipation” (priority 1997, dated 2002).
# Assays:
# [1] = test system: patients with constipation; conditions: colchicine alone, in a lower dose
SMILES,side-effect (long-term use as antibiotic),stimulation of defecation [1],"long-term toxicity (given alone in the doses of Verne et al., long-term)"
CN[C@H](CC(C)C)C(=O)N[C@H]1C(=O)N[C@@H](CC(N)=O)C(=O)N[C@H]2C(=O)N[C@H]3C(=O)N[C@H](C(=O)N[C@H](C(=O)O)c4cc(O)cc(O)c4-c4cc3ccc4O)[C@H](O)c3ccc(c(Cl)c3)Oc3cc2cc(c3O[C@@H]2O[C@H](CO)[C@@H](O)[C@H](O)[C@H]2O[C@H]2C[C@](C)(N)[C@H](O)[C@H](C)O2)Oc2ccc(cc2Cl)[C@H]1O [vancomycin],neurotoxic,,
COc1cc2c(c(OC)c1OC)-c1ccc(OC)c(=O)cc1[C@@H](NC(C)=O)CC2 [colchicine],,insufficient in most patients to stimulate defecation,can cause muscle and nerve damage (myopathy and neuropathy)
